Where two headings read alike, the source gives them in different places.
Experiment: Liquid dish neat product liquid-air partition coefficient
Assay type: physicochemical
Conditions: for Comment Code: Log of liquid dish neat product liquid-air partition coefficient: code letters K, L
[1] = class code letter within Comment Code

Structure (SMILES) | Log of liquid dish neat product liquid-air partition coefficient (Comment Code K/L) | Log of liquid dish neat product liquid-air partition coefficient (Comment Code K/L) [1] | Comment Code: Log of liquid dish neat product liquid-air partition coefficient
CC(=O)OC(C)CCC=C(C)CCC=C(C)C (racemic) [Material 881] | K (Log of liquid dish neat product liquid-air partition coefficient greater than or equal to −7) | – | –
CCCCCCC#CC(OC)OC [Material 3] | – | K (Log of liquid dish neat product liquid-air partition coefficient greater than or equal to −7) | –
Cc1ccc(C(C)(C)O)cc1 [Material 4] | – | K (Log of liquid dish neat product liquid-air partition coefficient greater than or equal to −7) | –
C=C1C2CCC(C)(C)C1CCC(OC)C2 (stereo not shown) [Material 7] | – | K (Log of liquid dish neat product liquid-air partition coefficient greater than or equal to −7) | K (Log of liquid dish neat product liquid-air partition coefficient greater than or equal to −7)
COC1CCCCCCCCCCC1 [Material 9] | – | K (Log of liquid dish neat product liquid-air partition coefficient greater than or equal to −7) | –
COC1(OC)CCCCCCCCCCC1 [Material 10] | – | K (Log of liquid dish neat product liquid-air partition coefficient greater than or equal to −7) | –
CCCCCCCCCC/C=C\C#N [Material 11] | – | K (Log of liquid dish neat product liquid-air partition coefficient greater than or equal to −7) | –
CCOC1CCC(C(C)(C)CC)CC1 (stereo not shown) [Material 12] | – | – | K (Log of liquid dish neat product liquid-air partition coefficient greater than or equal to −7)
Cc1ccc2c(c1)OCC(=O)CO2 [Material 17] | – | K (Log of liquid dish neat product liquid-air partition coefficient greater than or equal to −7) | –
COc1ccccc1-c1ccccc1 [Material 22] | – | K (Log of liquid dish neat product liquid-air partition coefficient greater than or equal to −7) | –
CC1C(C)(C)C2=C(C3OC(C)(C)OC3CC2)C1(C)C (stereo not shown) [Material 23] | – | K (Log of liquid dish neat product liquid-air partition coefficient greater than or equal to −7) | K (Log of liquid dish neat product liquid-air partition coefficient greater than or equal to −7)
CC(C)C1OC2(CCCC2)OCC1(C)C (stereo not shown) [Material 25] | – | K (Log of liquid dish neat product liquid-air partition coefficient greater than or equal to −7) | –
COc1ccccc1C=CC=O [Material 26] | – | – | K (Log of liquid dish neat product liquid-air partition coefficient greater than or equal to −7)
CCCCCCCCOC(=O)c1ccco1 [Material 28] | – | K (Log of liquid dish neat product liquid-air partition coefficient greater than or equal to −7) | –
C=CC(=C)CCCC(C)(C)O [Material 34] | – | K (Log of liquid dish neat product liquid-air partition coefficient greater than or equal to −7) | –
C=CC(=C)CCCC(C)(C)OC(C)=O [Material 35] | – | K (Log of liquid dish neat product liquid-air partition coefficient greater than or equal to −7) | –
C=CCc1cc(OC)c2c(c1)OCO2 [Material 37] | – | K (Log of liquid dish neat product liquid-air partition coefficient greater than or equal to −7) | –
CCCCCCCCCCCCCC#N [Material 38] | – | K (Log of liquid dish neat product liquid-air partition coefficient greater than or equal to −7) | –
CC1=CC(C)C2C(CCC(C)(C)C2O)C1 (stereo not shown) [Material 39] | – | K (Log of liquid dish neat product liquid-air partition coefficient greater than or equal to −7) | K (Log of liquid dish neat product liquid-air partition coefficient greater than or equal to −7)
C=CC(C)=CCCC(C)(C)O [Material 42] | – | K (Log of liquid dish neat product liquid-air partition coefficient greater than or equal to −7) | –
C=CC(C)=CCCC(C)(C)O [Material 43] | – | K (Log of liquid dish neat product liquid-air partition coefficient greater than or equal to −7) | –
CC(=O)OCCC1=CCC2CC1C2(C)C (stereo not shown) [Material 47] | – | K (Log of liquid dish neat product liquid-air partition coefficient greater than or equal to −7) | –
C=C(C)[C@@H]1CCC2=CC(=O)C[C@@H](C)[C@]2(C)C1 [Material 48] | – | K (Log of liquid dish neat product liquid-air partition coefficient greater than or equal to −7) | K (Log of liquid dish neat product liquid-air partition coefficient greater than or equal to −7)
CCNC(=O)C1CC(C)CCC1C(C)C (stereo not shown) [Material 57] | – | K (Log of liquid dish neat product liquid-air partition coefficient greater than or equal to −7) | –
CC(C)=CCC/C(C)=C\COC=O [Material 59] | – | – | K (Log of liquid dish neat product liquid-air partition coefficient greater than or equal to −7)
CC(=O)c1oc2ccccc2c1C [Material 61] | – | K (Log of liquid dish neat product liquid-air partition coefficient greater than or equal to −7) | –

Structure (SMILES) | Log of liquid dish neat product liquid-air partition coefficient (Comment Code K/L) | Log of liquid dish neat product liquid-air partition coefficient (Comment Code K/L) [1] | Comment Code: Log of liquid dish neat product liquid-air partition coefficient
C=CC(C)(O)CCC=C(C)CCC=C(C)C (stereo not shown) [Material 63] | – | K (Log of liquid dish neat product liquid-air partition coefficient greater than or equal to −7) | –
CC(C)=CCC/C(C)=C\CO [Material 64] | – | K (Log of liquid dish neat product liquid-air partition coefficient greater than or equal to −7) | –
CC1=CC2(C=CC(C)O2)C(C(C)C)CC1 (stereo not shown) [Material 68] | – | K (Log of liquid dish neat product liquid-air partition coefficient greater than or equal to −7) | –
CC1=CCC(C(C)CC2CCCC2=O)CC1 (stereo not shown) [Material 69] | – | K (Log of liquid dish neat product liquid-air partition coefficient greater than or equal to −7) | –
CC(=O)/C=C/C1C(C)CCC(C)C1(C)C (stereo not shown) [Material 71] | – | K (Log of liquid dish neat product liquid-air partition coefficient greater than or equal to −7) | –
CC(=O)OCC1CC=C(CCC=C(C)C)CC1 (stereo not shown) [Material 74] | – | K (Log of liquid dish neat product liquid-air partition coefficient greater than or equal to −7) | –
CC1CCCCCCCCCCCCC(=O)C1 (stereo not shown) [Material 79] | – | K (Log of liquid dish neat product liquid-air partition coefficient greater than or equal to −7) | –
CC1/C=C/CCCCCCCCCCC(=O)C1 (stereo not shown) [Material 80] | – | K (Log of liquid dish neat product liquid-air partition coefficient greater than or equal to −7) | –
CCC(C)(O)/C=C/C=C(C)C (stereo not shown) [Material 81] | – | – | K (Log of liquid dish neat product liquid-air partition coefficient greater than or equal to −7)
CC(O)C(C)Cc1ccccc1 (stereo not shown) [Material 82] | – | K (Log of liquid dish neat product liquid-air partition coefficient greater than or equal to −7) | –
CC(C)C1CCC(C(C)O)CC1 (stereo not shown) [Material 83] | – | K (Log of liquid dish neat product liquid-air partition coefficient greater than or equal to −7) | –
CCC(=O)OC(C)c1ccccc1 (stereo not shown) [Material 96] | – | – | K (Log of liquid dish neat product liquid-air partition coefficient greater than or equal to −7)
CC(O)CCc1ccccc1 (stereo not shown) [Material 98] | – | K (Log of liquid dish neat product liquid-air partition coefficient greater than or equal to −7) | –
CCCCCCCCCC(C)C(OC)OC (stereo not shown) [Material 101] | – | K (Log of liquid dish neat product liquid-air partition coefficient greater than or equal to −7) | –
CCCCCCCCCCCCCC(=O)OC [Material 104] | – | K (Log of liquid dish neat product liquid-air partition coefficient greater than or equal to −7) | –
CC=Cc1ccc(OC)c(OC)c1 [Material 108] | – | K (Log of liquid dish neat product liquid-air partition coefficient greater than or equal to −7) | –
C=CCc1ccc(OC)c(OC)c1 [Material 110] | – | K (Log of liquid dish neat product liquid-air partition coefficient greater than or equal to −7) | –
CCC=CCC1C(=O)CCC1CC(=O)OC (stereo not shown) [Material 112] | – | K (Log of liquid dish neat product liquid-air partition coefficient greater than or equal to −7) | –
Cc1cccc(Oc2ccccc2)c1 [Material 114] | – | K (Log of liquid dish neat product liquid-air partition coefficient greater than or equal to −7) | –
CCOc1cc(COC)ccc1O [Material 115] | – | – | K (Log of liquid dish neat product liquid-air partition coefficient greater than or equal to −7)
COC(=O)C=Cc1ccccc1 [Material 117] | – | K (Log of liquid dish neat product liquid-air partition coefficient greater than or equal to −7) | –
C=CCc1ccc(OC)cc1 [Material 119] | – | K (Log of liquid dish neat product liquid-air partition coefficient greater than or equal to −7) | –
CC(=O)c1ccc2ccccc2c1 [Material 120] | – | K (Log of liquid dish neat product liquid-air partition coefficient greater than or equal to −7) | –
COC(C)(C)CCCC(C)C=O (stereo not shown) [Material 125] | – | – | K (Log of liquid dish neat product liquid-air partition coefficient greater than or equal to −7)
CC(C)C1CCC(CO)CC1 (stereo not shown) [Material 133] | – | – | K (Log of liquid dish neat product liquid-air partition coefficient greater than or equal to −7)

Source: patent US20160090556A1, “PRODUCTS COMPRISING MALODOR REDUCTION MATERIALS” (The Procter & Gamble Company, priority 2014, published 2016)
